Assay results reported in patent EP2951180B1, “2,6,7,8 SUBSTITUTED PURINES AS HDM2 INHIBITORS” (Merck Sharp & Dohme Corp., priority 2013, dated 2014).
pIC50: −log10 of the molar value.

These compounds were tested against T1, HDM2 (Homo sapiens, UniProt Q00987) (assay: HDM2 FRET assay (inhibition of binding of FITC labeled p53-pocket peptide to HDM2)). Settings: Table 6; read-out: FRET IC50.
T1 construct: Thioredoxin (N); made in house; host or cells: E. coli strain BL21(DE3)Rosetta
Summary of the method: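 Signal is read as the 520/495 nm emission ratio and converted to percent inhibition; nonlinear sigmoidal regression yields IC50. The assay mixes HDM2 (0.5 nM), FITC-p53 peptide (3 nM) and Tb anti-His antibody (0.25 nM) at 0.1% DMSO.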

T1 sequence (Q00987 17-125): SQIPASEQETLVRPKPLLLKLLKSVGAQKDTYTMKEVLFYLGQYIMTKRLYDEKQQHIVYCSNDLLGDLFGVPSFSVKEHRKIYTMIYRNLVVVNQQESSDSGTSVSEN

Compound	pIC50
Cc1cccc(-c2nc3nc(C(=O)O)nc(N[C@H](C)C4CCC4)c3n2Cc2ccc(Cl)cc2)c1 [Example 6.2, 7-(4-chlorobenzyl)-6-{[(1R)-1-cyclobutylethyl]amino}-8-(3-methylphenyl)-7H-purine-2-carboxylic acid]	7.86
Cc1cccc(-c2nc3nc(C(=O)O)nc(N[C@H](C)C4CCCC4)c3n2Cc2ccc(Cl)cc2)c1 [Example 6.3, 7-(4-chlorobenzyl)-6-{[(1R)-1-cyclopentylethyl]amino}-8-(3-methylphenyl)-7H-purine-2-carboxylic acid]	7.50
Cc1cccc(-c2nc3nc(C(=O)O)nc(N[C@H](C)C4CCCCC4)c3n2Cc2ccc(Cl)cc2)c1 [Example 6.4, 7-(4-chlorobenzyl)-6-{[(1R)-1-cyclohexylethyl]amino}-8-(3-methylphenyl)-7H-purine-2-carboxylic acid]	5.99
Cc1cccc(-c2nc3nc(C(=O)O)nc(N[C@H](C)C4CC4)c3n2Cc2ccc(Br)cc2)c1 [Example 6.5, 7-(4-bromobenzyl)-6-{[(1R)-1-cyclopropylethyl]amino}-8-(3-methylphenyl)-7H-purine-2-carboxylic acid]	6.63
Cc1cccc(-c2nc3nc(C(=O)O)nc(NC(C)(C)C4CC4)c3n2Cc2ccc(Cl)cc2)c1 [Example 6.6, 7-(4-chlorobenzyl)-6-[(1-cyclopropyl-1-methylethyl)amino]-8-(3-methylphenyl)-7H-purine-2-carboxylic acid]	5.78
Cc1cccc(-c2nc3nc(C(=O)O)nc(N[C@H](C)C4CCC4)c3n2Cc2ccc(Br)cc2)c1 [Example 6.7, 7-(4-bromobenzyl)-6-{[(1R)-1-cyclobutylethyl]amino}-8-(3-methylphenyl)-7H-purine-2-carboxylic acid]	7.12
Cc1cccc(-c2nc3nc(C(=O)O)nc(NC4CCCCC4C)c3n2Cc2ccc(C(F)(F)F)cc2)c1 (stereo not drawn) [Example 6.8, 6-[(2-methylcyclohexyl)amino]-8-(3-methylphenyl)-7-[4-(trifluoromethyl)benzyl]-7H-purine-2-carboxylic acid]	6.64
Cc1cccc(-c2nc3nc(C(=O)O)nc(NC4CCCCC4C)c3n2Cc2ccc(Br)cc2)c1 (stereo not drawn) [Example 6.9, 7-(4-bromobenzyl)-6-[(2-methylcyclohexyl)amino]-8-(3-methylphenyl)-7H-purine-2-carboxylic acid]	7.65
Cc1cccc(-c2nc3nc(C(=O)O)nc(NC4CCCCC4C)c3n2Cc2ccc(Br)cc2)c1 (stereo not drawn) [Example 6.10, 7-(4-bromobenzyl)-6-[(2-methylcyclohexyl)amino]-8-(3-methylphenyl)-7H-purine-2-carboxylic acid]	5.98
Cc1cccc(-c2nc3nc(C(=O)O)nc(N(C)C(C)C4CC4)c3n2Cc2ccc(Cl)cc2)c1 (stereo not drawn) [Example 6.11, 7-(4-chlorobenzyl)-6-[(1-cyclopropylethyl)(methyl)amino]-8-(3-methylphenyl)-7H-purine-2-carboxylic acid]	5.85
O=C(O)c1nc(NCC2CC2)c2c(n1)nc(-c1cccc(Cl)c1)n2Cc1ccc(Cl)cc1 [Example 6.12, 7-(4-chlorobenzyl)-8-(3-chlorophenyl)-6-[(cyclopropylmethyl)amino]-7H-purine-2-carboxylic acid]	5.39
C[C@@H](Nc1nc(C(=O)O)nc2nc(-c3ccc4sccc4c3)n(Cc3ccc(C(F)(F)F)cc3)c12)C1CC1 [Example 6.13, 8-(1-benzothiophen-5-yl)-6-{[(1R)-1-cyclopropylethyl]amino}-7-[4-(trifluoromethyl)benzyl]-7H-purine-2-carboxylic acid]	7.79
C[C@@H](Nc1nc(C(=O)O)nc2nc(-c3ccc4sccc4c3)n(Cc3ccc(C(F)(F)F)cc3)c12)C1CCC1 [Example 6.14, 8-(1-benzothiophen-5-yl)-6-{[(1R)-1-cyclobutylethyl]amino}-7-[4-(trifluoromethyl)benzyl]-7H-purine-2-carboxylic acid]	7.45
Cc1cccc(-c2nc3nc(C(=O)O)nc(N[C@H](C)C4CC4)c3n2Cc2ccc(F)c(Cl)c2)c1 [Example 6.15, 7-(3-chloro-4-fluorobenzyl)-6-{[(1R)-1-cyclopropylethyl]amino}-8-(3-methylphenyl)-7H-purine-2-carboxylic acid]	6.43
Cc1cccc(-c2nc3nc(C(=O)O)nc(N[C@H](C)C4CC4)c3n2Cc2ccc(Cl)c(Cl)c2)c1 [Example 6.16, 6-{[(1R)-1-cyclopropylethyl]amino}-7-(3,4-dichlorobenzyl)-8-(3-methylphenyl)-7H-purine-2-carboxylic acid]	6.33
Cc1cccc(-c2nc3nc(C(=O)O)nc(N[C@H](C)C4CC4)c3n2Cc2ccc(Cl)c(F)c2)c1 [Example 6.17, 7-(4-chloro-3-fluorobenzyl)-6-{[(1R)-1-cyclopropylethyl]amino}-8-(3-methylphenyl)-7H-purine-2-carboxylic acid]	7.59
Cc1cccc(-c2nc3ncnc(NC(CC(=O)O)C4CC4)c3n2Cc2ccc(C(F)(F)F)cc2)c1 (stereo not drawn) [Example 6.18, 3-cyclopropyl-3-({8-(3-methylphenyl)-7-[4-(trifluoromethyl)benzyl]-7H-purin-6-yl}amino)propanoic acid]	5.28

Same assay, conditions: Table 11; read-out: FRET IC50

Compound	pIC50
C[C@@H](Nc1nc(-c2noc(=O)[nH]2)nc2nc(N(C)[C@@H]3CCCC[C@@H]3O)n(C[C@H]3CC[C@H](C)CC3)c12)C1CCC1 (stereo in doubt) [Example 11.132, 3-(6-{[(1R)-1-cyclobutylethyl]amino}-8-{[(1R,2S)-2-hydroxycyclohexyl](methyl)amino}-7-[(trans-4-methylcyclohexyl)methyl]-7H-purin-2-yl)-1,2,4-oxadiazol-5(4H)-one]	7.59
C[C@@H](Nc1nc(-c2noc(=O)[nH]2)nc2nc(N(C)[C@@H]3CCCC[C@@H]3O)n(C[C@H]3CC[C@H](C)CC3)c12)C1CCC1 (stereo in doubt) [Example 11.134, 3-(6-{[(1R)-1-cyclobutylethyl]amino}-8-{[(1R,2S)-2-hydroxycyclohexyl] (methyl)amino}-7-[(trans-4-methylcyclohexyl)methyl]-7H-purin-2-yl)-1,2,4-oxadiazol-5(4H)-one]	8.02
C[C@@H]1OCCN(c2nc3nc(-c4n[nH]c(=O)o4)nc(N[C@H](C)C4CCC4)c3n2C[C@H]2CC[C@H](C)CC2)[C@H]1C (stereo in doubt) [Example 11.167, 5-(6-{[(1R)-1-cyclobutylethyl]amino}-8-[(trans)-2,3-dimethylmorpholin-4-yl]-7-[(trans-4-methylcyclohexyl)methyl]-7H-purin-2-yl)-1,3,4-oxadiazol-2(3H)-one]	8.67

Same assay, conditions: Table 22; read-out: FRET IC50

Compound	pIC50
C[C@@H](Nc1nc(-c2noc(=O)[nH]2)nc2nc(C(O)(c3ccccc3)C(F)(F)F)n(C[C@H]3CC[C@H](C)CC3)c12)C1CCC1 (single isomer, unassigned) [Example 22.25]	6.30
C[C@@H](Nc1nc(-c2noc(=O)[nH]2)nc2nc(C(O)(c3ccccc3)C(F)(F)F)n(C[C@H]3CC[C@H](C)CC3)c12)C1CCC1 (single isomer, unassigned) [Example 22.28]	7.56
C[C@@H](Nc1nc(-c2noc(=O)[nH]2)nc2nc(C(O)(CO)c3ccccc3)n(C[C@H]3CC[C@H](C)CC3)c12)C1CCC1 (single isomer, unassigned) [Example 22.60]	6.95
C[C@@H](Nc1nc(-c2noc(=O)[nH]2)nc2nc(C(O)(CO)c3ccccc3)n(C[C@H]3CC[C@H](C)CC3)c12)C1CCC1 (single isomer, unassigned) [Example 22.61]	8.55
C[C@@H](Nc1nc(-c2noc(=O)[nH]2)nc2nc(C(C)(F)c3ccccc3F)n(C[C@H]3CC[C@H](C)CC3)c12)C1CCC1 (single isomer, unassigned) [Example 22.62]	9.25
C[C@@H](Nc1nc(-c2noc(=O)[nH]2)nc2nc(C(C)(F)c3ccccc3F)n(C[C@H]3CC[C@H](C)CC3)c12)C1CCC1 (single isomer, unassigned) [Example 22.65]	7.64
Cc1nc(C(C)(F)c2nc3nc(-c4noc(=O)[nH]4)nc(N[C@H](C)C4CCC4)c3n2C[C@H]2CC[C@H](C)CC2)c(C)s1 (single isomer, unassigned) [Example 22.73]	8.39
Cc1nc(C(C)(F)c2nc3nc(-c4noc(=O)[nH]4)nc(N[C@H](C)C4CCC4)c3n2C[C@H]2CC[C@H](C)CC2)c(C)s1 (single isomer, unassigned) [Example 22.75]	8.26
C[C@@H](Nc1nc(-c2noc(=O)[nH]2)nc2nc(C(C)(F)c3ccccc3)n(C[C@H]3CC[C@H](C)CC3)c12)C1CCC1 (single isomer, unassigned) [Example 22.77]	8.53
C[C@@H](Nc1nc(-c2noc(=O)[nH]2)nc2nc(C(C)(F)c3ccccc3)n(C[C@H]3CC[C@H](C)CC3)c12)C1CCC1 (single isomer, unassigned) [Example 22.78]	7.91

Same assay, conditions: Table 23; read-out: FRET IC50

Compound	pIC50
COC(c1ccccc1)c1nc2nc(-c3noc(=O)[nH]3)nc(-c3cccc(Cl)c3)c2n1C[C@H]1CC[C@H](C)CC1 (single isomer, unassigned) [Example 23.44, 3-{6-(3-chlorophenyl)-8-[methoxy(phenyl)methyl]-7-[(trans-4-methylcyclohexyl)methyl] -7H-purin-2-yl}-1,2,4-oxadiazol-5(4H)-one]	8.34
COC(C)(c1ccccc1F)c1nc2nc(-c3noc(=O)[nH]3)nc(-c3cncc(Cl)c3)c2n1C[C@H]1CC[C@H](C)CC1 (single isomer, unassigned) [Example 23.49, 3-{6-(5-chloropyridin-3-yl)-8-[1-(2-fluorophenyl)-1-methoxyethyl]-7-[(trans-4-methylcyclohexyl)methyl]-7H-purin-2-yl}-1,2,4-oxadiazol-5(4H)-one]	9.05

Same assay, conditions: read-out: inh. at 1000 nM (FRET)

Compound	inhibition at 1 µM
CCC1CCN(c2nc(C(=O)O)nc3nc(-c4cccc(C)c4)n(Cc4ccc(C(F)(F)F)cc4)c23)C1 (stereo not drawn) [Example 6.1, 6-(3-ethylpyrrolidin-1-yl)-8-(3-methylphenyl)-7-[4-(trifluoromethyl)benzyl]-7H-purine-2-carboxylic acid]	41%
